Patent publication US6444695B1, “Inhibition of thrombin-induced platelet aggregation by creatine kinase inhibitors” (The Regents of the University of California, priority 2000, dated 2002)
“Also recorded” adds a separate entry of the source.

Tests used:
platelets = assay: Thrombin-induced platelet aggregation in platelet-rich plasma (Chrono-Log aggregometer); format: cell-based, human; conditions: 30 min preincubation, 1 nM thrombin, PRP
Method: Blood from healthy volunteers was collected in an anti-coagulant citrate solution according to standard protocols. The whole blood/citrate solution was centrifuged at 200×g for 10 minutes to obtain platelet-rich plasma (PRP). The platelet count, as determined by Coulter Counter, was 2.88×10^8/mL. Aliquots (0.5 mL each) of the PRP were incubated with and without various concentrations of cyclocreatine (0 to 10 mM final concentration) for 30 minutes at room temperature. The aggregation assay was then carried out in the presence of thrombin (10 ul of thrombin was added to each aliquot, to a final concentration of 1 nM) with stirring at 37° C. using a Chrono-Log Whole Blood Aggregometer. (Chronolog Corp., Havertown, Pa.) Absorbance was measured at 500 nm.

[1] = test system: human umbilical vein endothelial cells (HUVEC); assay: Thrombin-induced cell rounding / contraction of HUVEC; format: cell-based; conditions: for % of cells round after thrombin: thrombin 10 pM 20 minutes (control 2%, thrombin alone 80%); for effect on thrombin-induced cell rounding / contraction: thrombin 10 pM 20 minutes
Method: Primary cultures of pooled Human umbilical vein endothelial cells (HUVEC) cells were purchased from Clonetics (Walkersville, Md.) and cultured according to the manufacturer's protocol. About 2500 cells/cm^2 were cultured in Endothelial Cell Growth Medium BulletKit-2 (Clonetics, Walkersville, Md.) on collagen (Gibco, Grand Island, N.Y.) coated RS Lab Tek II slides for 5 days until confluent. Cells were then cultured in low serum (0.5%) medium overnight. Cells were treated with 50 mM cyclocreatine for 3 to 4 hours, or with […] ROCK (Rho Kinase) inhibitor Y-27632 for 30 minutes, as described in Maekawa et al., (1999) Science 285: 895-8, hereby incorporated by reference in its entirety.
Thrombin was delivered at a final concentration of 10 pM for 20 minutes to endothelial cells. F-actin was stained with Alexa 594 phalloidin (Molecular Probes). HUVECs were examined under fluorescence and phase contrast micrography, and cells were scored as either round or flat.

[2] = test system: human umbilical vein endothelial cells (HUVEC); assay: Intracellular calcium assay (Fluo-3, FLIPR) in HUVEC after thrombin; format: cell-based
Method: To assay for intracellular calcium levels, cell media was decanted and replaced with Fluo-3 AM (Molecular Probes) in […] of loading buffer with 1% Fetal Calf Serum (FCS) for 1 hour. Cells were rinsed with loading buffer and the 96-well plate was placed into a Fluorometric Imaging Plate Reader (FLIPR, Molecular Devices, Sunnyvale, Calif.). The relative intracellular calcium levels were monitored at […] for 210 seconds in 4 to 8 identically treated wells. To monitor calcium release from intracellular stores thrombin was delivered in buffer containing 10 mM EDTA. Various phospholipase C inhibitors were applied as well.

[3] = test system: primary cortical astrocyte cultures; assay: Astrocyte morphology studies (thrombin-induced shape change, stellate vs flat); format: cell-based, rat; conditions: for effect on morphological response of astrocytes to thrombin / fold greater number of astrocytes remaining stellate after thrombin: 10 pM thrombin 2 h; for fold greater number of astrocytes remaining stellate after thrombin: versus thrombin alone
Method: Coimmunoprecipitation. Primary cortical astrocyte cultures were prepared from 1- to 2-day-old Sprague-Dawley rats as described in Donovan, et al., (1997) J. Neurosci. 17: 5316-5326. Astrocytes were solubilized and incubated with control antibody (rabbit IgG) or anti-PAR-1 antibody overnight at 4° C. in the presence of protein A-Sepharose. Immunoprecipitation products were either subjected to CKB activity assays or separated by SDS/PAGE and analyzed on immunoblots with anti-CKB antibodies.
(§1) Astrocyte Morphology Studies. Oligonucleotides based on a CKB antisense sequence (GUGUCUGCAACAGCUUAGC-CAUCAG), a control reverse sequence ([…]), and an identical antisense sequence rendered insensitive to RNaseH were purchased from Sequitur (Natick, Mass.) and transformed into primary astrocyte cultures with Lipofectin (GIBCO/BRL) for 1 h. After 18 h, cells were differentiated in 1.5 mM dibutyryl cAMP for 2 h. A total of 10 pM thrombin was added for 2 h for a maximal response, and the morphology of approximately 200 cells was examined under phase-contrast micrography and scored as either stellate or flat. Antisense knockdown of CKB was confirmed by immunoblot analysis. Morphology assays were also performed after a 4-h treatment with 50 mM cyclocreatine.

Ad12HER10 retinoblasts = assay: Thrombin/PAR-1 morphological response in retinoblasts; format: cell-based, human; conditions: Ad12HER10, data not shown
Method: Dominant Negative CKB Studies. The dominant negative CKB mutant C283S, described in Lin, et al., (1994) Biochim. Biophys. Acta 1206: 97-104, was cloned into the pIRES-EGFP vector (CLONTECH) and transfected for 6 h with Novafector (VennNova, LCC) into Ad12HER10 retinoblasts seeded into Lab-Tek II slides (Nunc). After 18 h, cells were differentiated with 2 mM dibutyryl cAMP in serum-free medium for 6 h. After addition of thrombin (160 nM) for 2 h, transfected cells (20-30%) were identified by fluorescence micrography, and the cell morphology of approximately 100 transfected cells was examined with phase-contrast illumination and scored blind to treatment as either refractile or flat.

RhoA = RhoA activation and translocation assay; format: cell-based, rat; conditions: astrocytes, 50 mM cyclocreatine 4 h
Method: RhoA Activation and Translocation Assay. Active RhoA levels were measured in primary rat astrocytes as described in Ren, et al., (1999) EMBO J. 18: 578-585. Astrocytes received a 4-h 50 mM cyclocreatine treatment before the thrombin (10 pM) addition for 10 min. Cell lysates were incubated with GST-Rhotekin binding domain (20-30 μg) for 45 min, washed, and immunoprobed with anti-RhoA antibody. For membrane RhoA, crude membrane fractions were prepared as described in Donovan, et al., (1997) J. Neurosci. 17: 5316-5326. Fifteen micrograms of membrane protein fractions was separated by SDS/PAGE and immunoblotted with anti-RhoA antibody.

astrocytes [4] = assay: Intracellular calcium assay (Fluo-3, FLIPR) in astrocytes after thrombin; format: cell-based, rat; conditions: thrombin 10 pM, cyclocreatine 50 mM 4 h or U-73122 1 μM 10 min
Method: Intracellular Calcium Assay. Astrocytes were treated with or without 50 mM cyclocreatine for 4 h. Cell medium was decanted and replaced with Fluo-3 AM (Molecular Probes) for 1 h. Some wells received 1 μM U-73122 (Biomol, Plymouth Meeting, Pa.) for 10 min before 10 pM thrombin and 10 mM EDTA injection. The relative intracellular calcium levels were monitored at […] for 210 sec in 4-8 identically treated wells by using a Fluorometric Imaging Plate Reader (Molecular Devices).

astrocytes [5] = assay: Total cellular ATP levels and cell viability; format: cell-based, rat; conditions: data not shown
Method: Materials. The protein-protein interaction screen was performed by using the Matchmaker GAL4 two-hybrid system and a rat brain cDNA library (CLONTECH). Rabbit anti-PAR-1 antibody was a gift from M. Runge (University of Texas Medical Branch, Galveston), anti-CKB antibodies were obtained from Chemicon, and anti-RhoA was from Santa Cruz Biotechnology. CKB activity was measured with CK 520 Sigma. ATP levels were measured with the bioluminescent somatic cell assay (Sigma FL-ASC). Thrombin and purified CKB were purchased from Calbiochem, and cyclocreatine was purchased from Sigma. Site-directed mutagenesis was performed with Quick Change (Stratagene). G. Molloy (Delaware University) graciously provided the CKB plasmid, and T. Ma (Baylor College, Houston) provided the dominant negative CKB mutant. Statistical analysis was carried out by using two-way ANOVA.

CKB = CKB immunoblot after antisense knockdown; format: cell-based, rat; conditions: astrocytes, 18 h after transfection
Method: as §1

**Q.** With `NC1=NCCN1CC(=O)O` [cyclocreatine] as the molecule, how does the “% Aggregation of Platelets” value (platelets; 1 mM cyclocreatine) read?
**A.** 88%

**Q.** And the “% Aggregation of Platelets” value (platelets; 5 mM cyclocreatine)?
**A.** 11%

**Q.** What about the “% Aggregation of Platelets” value (platelets; 10 mM cyclocreatine) of the same molecule?
**A.** 0%

**Q.** And the “% of cells round after thrombin” value ([1]; maximum dose of cyclocreatine (50 mM, 3 to 4 hours))?
**A.** 20%

**Q.** And the “effect on thrombin-induced cell rounding / contraction” value [1]?
**A.** inhibited; also recorded: dose-dependent protective effect; also recorded: protected

**Q.** And the “effect on thrombin-induced calcium response (peak fluorescence)” value [2]?
**A.** almost no effect; also recorded: no significant changes

**Q.** And the “effect on morphological response of astrocytes to thrombin” value (“effect on morphological response” below) [3]?
**A.** dose-dependent decrease

**Q.** And the “fold greater number of astrocytes remaining stellate after thrombin” value [3]?
**A.** ≤ 4 fold

**Q.** And the “effect on morphological response” value ([3]; listed as Cyclocreatine)?
**A.** protects

**Q.** What about the “effect on thrombin/PAR-1 morphological response in retinoblasts” value (Ad12HER10 retinoblasts) of the same molecule?
**A.** blocked

**Q.** What about the “RhoA translocation to the membrane after thrombin treatment” value (RhoA; thrombin 10 pM) of the same molecule?
**A.** almost no translocation

**Q.** And the “GTP-RhoA after thrombin treatment (GST-rhotekin pull-down)” value (RhoA; thrombin 10 pM 10 min)?
**A.** significantly reduced

**Q.** And the “effect on thrombin-induced peak intracellular calcium” value (astrocytes [4])?
**A.** only a minor decline

**Q.** And the “effect on cell viability” value (astrocytes [5])?
**A.** no effect

**Q.** What about the “effect on total cellular ATP levels” value (astrocytes [5]) of the same molecule?
**A.** no effect

**Q.** “CKB antisense ODNs: antisense oligonucleotide GUGUCUGCAACAGCUUAGC-CAUCAG directed toward the 3′ end of the CKB mRNA (Sequitur) (antisense GUGUCUGCAACAGCUUAGCCAUCAG; chemistry not given here)” was tested. Which “effect on morphological response” value [3] did it give?
**A.** no longer responded

**Q.** And the “fold greater number of astrocytes remaining stellate after thrombin” value [3]?
**A.** > 3 fold

**Q.** And the “effect on astrocyte morphology without thrombin” value ([3]; treatment alone)?
**A.** without affecting

**Q.** And the “effect on cell viability” value (astrocytes [5])?
**A.** did not affect

**Q.** What about the “effect on total cellular ATP levels” value (astrocytes [5]) of the same molecule?
**A.** did not affect

**Q.** What about the “CKB expression level (Western blot)” value (CKB) of the same molecule?
**A.** significantly lower levels

**Q.** With `C/C=C(/C)C(=O)O[C@H]1C(C)=C2[C@H]([C@@H]1OC(=O)CCCCCCC)[C@@](C)(OC(C)=O)C[C@H](OC(=O)CCC)[C@@]1(O)[C@H]2OC(=O)[C@@]1(C)O` [thapsigargin] as the molecule, how does the “effect on thrombin-induced calcium response (peak fluorescence)” value [2] read?
**A.** completely abolished

**Q.** For `C[C@@H](N)[C@H]1CC[C@H](C(=O)Nc2ccncc2)CC1` [ROCK (Rho Kinase) inhibitor, Y-27632, reference compound], which “% of cells round after thrombin” value ([1]; 10 mM Y-27632 for 30 minutes) is on record?
**A.** 2%

**Q.** What about the “effect on thrombin-induced cell rounding / contraction” value [1] of the same molecule?
**A.** completely blocked

**Q.** “reverse sequence ODN (Rev): control reverse sequence oligonucleotide GACUACCGAUUCGACAACGUCUGUG (chemistry not given here) [reference compound]” was tested. Which “effect on morphological response” value [3] did it give?
**A.** Neither a reverse sequence ODN (Rev) nor the ODN rendered insensitive to RNaseH had any significant effect

**Q.** And the “CKB expression level (Western blot)” value (CKB)?
**A.** Neither a reverse sequence ODN (Rev) nor the ODN rendered insensitive to RNaseH had any significant effect

**Q.** What does the source list for `COc1ccc2c(c1)CC[C@@H]1[C@@H]2CC[C@]2(C)[C@@H](NCCCCCCN3C(=O)C=CC3=O)CC[C@@H]12` [U-73122, reference compound]?
**A.** effect on thrombin-induced calcium response (peak fluorescence) [2]: completely abolished; effect on thrombin-induced peak intracellular calcium (astrocytes [4]): inhibited

**Q.** `CCCCCCCCCCCCCCCCCCOCC(COP(=O)([O-])OCC[N+](C)(C)C)OC` (centres unmarked) [ET18-OCH3] was tested. Which “effect on thrombin-induced calcium response (peak fluorescence)” value [2] did it give?
**A.** completely abolished
